Source: publication PMC12297423, “Dual α-amylase and α-glucosidase inhibition by 1,2,4-triazole derivatives for diabetes treatment” (Scientific Reports, 2025)
Where two headings read alike, the source gives them in different places.

Columns and labels:
[1] = biological target: Saccharomyces cerevisiae α-glucosidase; assay: In vitro α-glucosidase inhibition assay (BioVision kit, pNPG); type: biochemical; conditions: for %inh α-glucosidase: Table 2S
Method: Using BioVision’s α-Glucosidase Inhibitor Screening Kit (Colorimetric) (Catalogue #K938-100) at (OD: 410 nm), the in vitro α-glucosidase suppression effect for the designed 1,2,4-triazole derivatives 3, 4, 6, 8, 9, and 10 was carried out. The results were analyzed on a multi-well spectrophotometer (ELISA reader) using a 96-well microplate in compliance with the manufacturer’s instructions as previously described[49],[50]. The α-glucosidase inhibition assay was conducted using Saccharomyces cerevisiae α-glucosidase (0.5–1 U/mL in phosphate buffer, pH 6.8). Test compounds (63–1000 µg/mL) were pre-incubated with the enzyme at 37 °C for 10 min, followed by addition of pNPG (5 mM) and further incubation for 30 min. The reaction was stopped with 0.2 M Na2CO3, and absorbance was measured at 405 nm. […] Inhibition (%) was calculated as above, and IC50 values were derived from nonlinear regression analysis Table 2S.

[2] = biological target: T1, porcine pancreatic α-amylase (Sus scrofa, UniProt P00690); assay: In vitro α-amylase inhibition assay (BioVision kit / modified DNSA method); type: biochemical; conditions: for %inh α-amylase: Table 1S
T1 construct: purchased BioVision K482-100
T1 sequence (P00690 16-511): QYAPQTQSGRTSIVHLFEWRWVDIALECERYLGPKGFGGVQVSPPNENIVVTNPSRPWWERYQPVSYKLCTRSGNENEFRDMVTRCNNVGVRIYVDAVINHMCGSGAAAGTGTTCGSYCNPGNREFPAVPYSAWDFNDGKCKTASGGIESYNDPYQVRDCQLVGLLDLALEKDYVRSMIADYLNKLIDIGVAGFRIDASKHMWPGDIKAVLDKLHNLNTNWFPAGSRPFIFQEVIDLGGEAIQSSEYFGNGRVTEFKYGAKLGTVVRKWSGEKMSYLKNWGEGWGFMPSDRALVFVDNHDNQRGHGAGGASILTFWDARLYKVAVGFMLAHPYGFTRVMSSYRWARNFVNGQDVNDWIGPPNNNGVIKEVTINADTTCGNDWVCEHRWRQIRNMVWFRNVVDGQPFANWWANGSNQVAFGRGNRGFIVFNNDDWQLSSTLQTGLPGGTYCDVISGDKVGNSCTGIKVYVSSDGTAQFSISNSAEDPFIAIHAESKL
Method: The α-amylase inhibition assay was performed using a modified DNSA (3,5-dinitrosalicylic acid) method. Test compounds (dissolved in DMSO) were serially diluted (100, 10, 1, 0.1, and 0.01 µg/mL) and pre-incubated with porcine pancreatic α-amylase (0.5 U/mL in phosphate buffer, pH 6.8) at 37 °C for 10 min. Starch solution (1% w/v) was added, and the reaction proceeded for 30 min at 37 °C. The reaction was terminated by adding DNSA reagent, followed by heating at 85 °C for 10 min. Absorbance was measured at 540 nm using a microplate reader. […] The percentage inhibition was calculated as: [(Acontrol–Asample)/Acontrol] × 100, where Acontrol represents enzyme activity without inhibitor. IC50 values were determined from dose-response curves using GraphPad Prism. Kinetic parameters (KActivity) were derived from ∆RFU (Relative Fluorescence Units) and slope values Table 1S.

[3] = read-out: α-amylase inhibition IC50 (converted)
[4] = table printed in Fig. 9, read-out: α- Amylase IC50 (converted)

| α-glucosidase inhibition IC50 [1] [µg/mL] | %inh α-glucosidase ([1]; conc 63 (µg/mL)) [%] | %inh α-glucosidase ([1]; conc 125 (µg/mL)) [%] | %inh α-glucosidase ([1]; conc 250 (µg/mL)) [%] | %inh α-glucosidase ([1]; conc 500 (µg/mL)) [%] | %inh α-glucosidase ([1]; conc 1000 (µg/mL)) [%] | %inh α-amylase ([2]; conc 0.01 (µg/mL)) [%] | %inh α-amylase ([2]; conc 0.1 (µg/mL)) [%] | %inh α-amylase ([2]; conc 1 (µg/mL)) [%] | %inh α-amylase ([2]; conc 10 (µg/mL)) [%] | %inh α-amylase ([2]; conc 100 (µg/mL)) [%] | IC50 [2, 3] [nM] | IC50 [2, 4] [nM] | Compound |
| --- | --- | --- | --- | --- | --- | --- | --- | --- | --- | --- | --- | --- | --- |
| 0.83 ± 0.03 | 1.67 | 4.01 | 7.55 | 28.9 | 69.2 | 14.4 | 19.9 | 40.6 | 74.1 | 91.3 | 2610 | 2620 | COc1ccc(Cc2nnc(SCC(=O)Nc3ccc(C(=O)O)cc3)n2-c2ccccc2)cc1 [Compound 6, 4-(2-((5-(4-methoxybenzyl)-4-phenyl-4H-1,2,4-triazol-3-yl)thio)acetamido)benzoic acid] |
| 0.77 ± 0.02 | 4.22 | 7.76 | 14 | 31.9 | 68.2 | 20.6 | 35.3 | 48.3 | 73.3 | 90 | 1410 | 1420 | COc1ccc(Cc2nnc(SCC(=O)Nc3ccc(O)cc3)n2-c2ccccc2)cc1 [Compound 9, N-(4-hydroxyphenyl)-2-((5-(4-methoxybenzyl)-4-phenyl-4H-1,2,4-triazol-3-yl)thio)acetamide] |
| 0.31 ± 0.01 | 16.3 | 25.1 | 39.9 | 58 | 82.8 | 29.2 | 41.2 | 56.1 | 77.6 | 92.3 | 510 | 528 | COc1ccc(Cc2nnc(SCC(=O)Nc3ccc(Br)cc3)n2-c2ccccc2)cc1 [Compound 10, N-(4-bromophenyl)-2-((5-(4-methoxybenzyl)-4-phenyl-4H-1,2,4-triazol-3-yl)thio)acetamide] |
| 0.67 ± 0.02 | 1.46 | 5.94 | 18.4 | 38.9 | 67.3 | 12 | 29.3 | 41.6 | 63.1 | 88.7 | 2890 | 2890 | CCOC(=O)c1ccc(NC(=O)CSc2nnc(Cc3ccc(OC)cc3)n2-c2ccccc2)cc1 [Compound 8, Ethyl 4-(2-((5-(4-methoxybenzyl)-4-phenyl-4H-1,2,4-triazol-3-yl)thio)acetamido)benzoate] |

The remaining lines, values behind:

| Compound | α-glucosidase inhibition IC50 [1] [µg/mL] | %inh α-glucosidase ([1]; conc 63 (µg/mL)) [%] | %inh α-glucosidase ([1]; conc 125 (µg/mL)) [%] | %inh α-glucosidase ([1]; conc 250 (µg/mL)) [%] | %inh α-glucosidase ([1]; conc 500 (µg/mL)) [%] | %inh α-glucosidase ([1]; conc 1000 (µg/mL)) [%] | %inh α-amylase ([2]; conc 0.01 (µg/mL)) [%] | %inh α-amylase ([2]; conc 0.1 (µg/mL)) [%] | %inh α-amylase ([2]; conc 1 (µg/mL)) [%] | %inh α-amylase ([2]; conc 10 (µg/mL)) [%] | %inh α-amylase ([2]; conc 100 (µg/mL)) [%] | IC50 [2, 3] [nM] | IC50 [2, 4] [nM] |
| --- | --- | --- | --- | --- | --- | --- | --- | --- | --- | --- | --- | --- | --- |
| COc1ccc(Cc2nnc(SCC(=O)Nc3ccccc3)n2-c2ccccc2)cc1 [Compound 3, 2-((5-(4-methoxybenzyl)-4-phenyl-4H-1,2,4-triazol-3-yl)thio)-N-phenylacetamide] | 0.36 ± 0.01 | 15.7 | 30 | 40.9 | 58.5 | 77 | 19.9 | 36.7 | 58.4 | 83.4 | 92.3 | 859 | 876 |
| COc1ccc(Cc2nnc(SCC(=O)Nc3ccc(C(C)=O)cc3)n2-c2ccccc2)cc1 [Compound 4, N-(4-acetylphenyl)-2-((5-(4-methoxybenzyl)-4-phenyl-4H-1,2,4-triazol-3-yl)thio)acetamide] | 0.27 ± 0.01 | 19.9 | 36.6 | 50.9 | 63.6 | 82.4 | 25.8 | 44.6 | 62.6 | 85.7 | 93.1 | 402 | 419 |
| C[C@H]1O[C@H](O[C@H]2[C@H](O)[C@@H](O)[C@@H](O[C@H]3[C@H](O)[C@@H](O)C(O)O[C@@H]3CO)O[C@@H]2CO)[C@H](O)[C@@H](O)[C@@H]1N[C@H]1C=C(CO)[C@@H](O)[C@H](O)[C@H]1O (some centres unmarked) [Acarbose, reference compound] | – | 8.91 | 28 | 40.6 | 58.6 | 76.8 | – | – | – | – | – | – | – |
